Results: US9493451B2 (Bionomics Limited, priority 2011, dated 2016)
pIC50: −log10 of the molar value.

What follows are compounds tested against T1, Kv1.3 (Homo sapiens, UniProt P22001) (assay: Electrophysiology: planar patch-clamp of Kv1.3 currents, IC50 from steady state current amplitude). Settings: Kv1.3 electrophysiology, results according to Method D1, read-out: IC50 (Kv1.3 ephys steady state).
T1 construct: expressed in transfected cells; host or cells: CHO (Kv1.3/CHO)
T1 sequence (P22001 whole entry): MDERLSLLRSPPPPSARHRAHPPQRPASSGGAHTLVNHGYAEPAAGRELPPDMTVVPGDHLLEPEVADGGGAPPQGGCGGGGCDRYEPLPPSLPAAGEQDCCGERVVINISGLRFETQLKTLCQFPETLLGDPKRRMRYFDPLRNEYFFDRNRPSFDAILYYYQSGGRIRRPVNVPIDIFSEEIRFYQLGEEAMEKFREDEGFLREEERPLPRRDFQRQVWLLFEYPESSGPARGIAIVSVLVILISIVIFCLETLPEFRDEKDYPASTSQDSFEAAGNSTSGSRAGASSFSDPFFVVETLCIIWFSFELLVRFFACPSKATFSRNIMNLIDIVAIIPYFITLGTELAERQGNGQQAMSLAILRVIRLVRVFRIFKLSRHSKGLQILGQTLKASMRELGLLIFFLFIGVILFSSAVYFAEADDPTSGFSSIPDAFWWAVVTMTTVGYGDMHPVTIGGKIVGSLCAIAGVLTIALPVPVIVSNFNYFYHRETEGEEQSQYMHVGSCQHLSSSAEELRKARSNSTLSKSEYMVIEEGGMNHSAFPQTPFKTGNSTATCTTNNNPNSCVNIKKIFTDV
Type: cell-based
Outline: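 Planar patch-clamp, whole-cell, Kv1.3/CHO cells; 500 ms pulses to +40 mV from −80 mV every 30 s; bath pH 7.4, pipette pH 7.2; 0.5% DMSO final. 5-6 cumulative concentrations on 2-3 cells to steady-state block; IC50 from Hill fit of normalised steady-state current at pulse end.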
`O=C(CS(=O)(=O)c1ccc(F)cc1)N(Cc1ccc(F)nc1)C(c1ccc(Cl)cc1)C1CC1` (centres unmarked) [Example 291] showed a pIC50 of 6.70 to 7.30.
`O=C(CS(=O)(=O)c1cccc(C(F)(F)F)c1)N(Cc1cccc[n+]1[O-])C(c1ccc(Cl)cc1)C1CC1` (centres unmarked) [Example 292] was tested, and the pIC50 was 6.00 to 6.70.
For `O=C(CS(=O)(=O)c1cccc(C(F)(F)F)c1)N(Cc1ccccn1)C(c1ccc(Cl)cc1)C1CC1` (centres unmarked) [Example 293], the pIC50 was 6.70 to 7.30.
`O=C(CS(=O)(=O)c1cccc(C(F)(F)F)c1)N(Cc1ccccn1)C(c1ccc(Cl)cc1)C1CC1` (centres unmarked) [Example 294] was tested, and the pIC50 was 6.70 to 7.30.
`COc1ccc(CN(C(=O)CS(=O)(=O)c2ccc(F)cc2)C(c2ccc(Cl)cc2)C2CC2)cn1` (centres unmarked) [Example 295] showed a pIC50 of 6.70 to 7.30.
`O=C(CS(=O)(=O)c1ccc(F)cc1)N(C1CCNCC1)C(c1ccc(OC(F)F)cc1)C1CC1` (centres unmarked) [Example 298] showed a pIC50 of 6.00 to 6.70.
In the case of `O=C(CS(=O)(=O)c1ccccc1F)N(Cc1ccc(C(F)(F)F)nc1)C(c1ccc(OC(F)F)cc1)C1CC1` (centres unmarked) [Example 299], the pIC50 was 6.70 to 7.30.
In the case of `O=C(CS(=O)(=O)c1ccccc1F)N(Cc1ccc(C(F)(F)F)nc1)C(c1ccc(OC(F)F)cc1)C1CC1` (centres unmarked) [Example 300], the pIC50 was 6.70 to 7.30.
With `O=C(CS(=O)(=O)c1ccccc1)N(Cc1ccc(C(F)(F)F)nc1)C(c1ccc(OC(F)F)cc1)C1CC1` (centres unmarked) [Example 301] the pIC50 was 6.70 to 7.30.
`O=C(CS(=O)(=O)c1ccccc1)N(Cc1ccc(C(F)(F)F)nc1)C(c1ccc(OC(F)F)cc1)C1CC1` (centres unmarked) [Example 302] gave a pIC50 of 6.70 to 7.30.
`O=C(CS(=O)(=O)c1ccccc1)N(Cc1ncccc1F)C(c1ccc(OC(F)F)cc1)C1CC1` (centres unmarked) [Example 303] gave a pIC50 of 6.70 to 7.30.
In the case of `O=C(CS(=O)(=O)c1ccccc1)N(Cc1ncccc1F)C(c1ccc(OC(F)F)cc1)C1CC1` (centres unmarked) [Example 304], the pIC50 was 6.70 to 7.30.
`O=C(CS(=O)(=O)c1ccccc1)N(Cc1cccnn1)C(c1ccc(OC(F)F)cc1)C1CC1` (centres unmarked) [Example 305] showed a pIC50 of 6.70 to 7.30.
`O=C(CS(=O)(=O)c1ccccc1)N(Cc1cccnn1)C(c1ccc(OC(F)F)cc1)C1CC1` (centres unmarked) [Example 306] showed a pIC50 of 6.00 to 6.70.
`O=C(CS(=O)(=O)c1cccc(C(F)(F)F)c1)N(Cc1cccnn1)C(c1ccc(OC(F)F)cc1)C1CC1` (centres unmarked) [Example 307] was tested, and the pIC50 was 6.70 to 7.30.
`CC(C)(C(=O)N(Cc1cccnn1)C(c1ccc(OC(F)F)cc1)C1CC1)S(=O)(=O)c1ccc(F)cc1` (centres unmarked) [Example 308] was tested, and the pIC50 was 6.70 to 7.30.
With `O=C(CS(=O)(=O)c1ccc(F)cc1)N(Cc1ncccc1F)C(c1ccc(OC(F)F)cc1)C1CC1` (centres unmarked) [Example 309] the pIC50 was 6.70 to 7.30.
`O=C(CS(=O)(=O)c1cccc(C(F)(F)F)c1)N(Cc1cccnn1)C(c1ccc(OC(F)F)cc1)C1CC1` (centres unmarked) [Example 310] was tested, and the pIC50 was 6.00 to 6.70.
In the case of `CC(C)(C(=O)N(Cc1cccnn1)C(c1ccc(OC(F)F)cc1)C1CC1)S(=O)(=O)c1ccc(F)cc1` (centres unmarked) [Example 311], the pIC50 was 6.00 to 6.70.
Work on `O=C(CS(=O)(=O)c1ccc(F)cc1)N(Cc1ccc(C(F)(F)F)nc1)C(c1ccc(OC(F)F)cc1)C1CC1` (centres unmarked) [Example 312] yielded a pIC50 of 6.70 to 7.30.
Work on `O=C(CS(=O)(=O)c1ccc(F)cc1)N(Cc1ccc(C(F)(F)F)nc1)C(c1ccc(OC(F)F)cc1)C1CC1` (centres unmarked) [Example 313] yielded a pIC50 of 6.70 to 7.30.
`O=C(CS(=O)(=O)c1ccc(F)cc1)N(Cc1ccccn1)C(c1ccc(OC(F)F)cc1)C1CC1` (centres unmarked) [Example 314] gave a pIC50 of 6.00 to 6.70.
`O=C(CS(=O)(=O)c1ccc(F)cc1)N(C1CCC(F)(F)CC1)C(c1ccc(OC(F)F)cc1)C1CC1` (centres unmarked) [Example 315] was tested, and the pIC50 was 6.00 to 6.70.
`O=C(CS(=O)(=O)c1ccc(F)cc1)N(C1CCC(F)(F)CC1)C(c1ccc(OC(F)F)cc1)C1CC1` (centres unmarked) [Example 316] showed a pIC50 of 6.00 to 6.70.
`O=C(CS(=O)(=O)c1ccc(F)cc1)N(C1CCOCC1)C(c1ccc(OC(F)F)cc1)C1CC1` (centres unmarked) [Example 317] gave a pIC50 of 6.00 to 6.70.
`CC(C)(C(=O)N(Cc1ccccn1)C(c1ccc(OC(F)F)cc1)C1CC1)S(=O)(=O)c1ccc(F)cc1` (centres unmarked) [Example 318] gave a pIC50 of 6.70 to 7.30.
In the case of `CC(C)(C(=O)N(Cc1ccccn1)C(c1ccc(OC(F)F)cc1)C1CC1)S(=O)(=O)c1ccc(F)cc1` (centres unmarked) [Example 319], the pIC50 was 6.70 to 7.30.
`Cc1cccc(CN(C(=O)CS(=O)(=O)c2ccc(F)cc2)C(c2ccc(OC(F)F)cc2)C2CC2)n1` (centres unmarked) [Example 320] was tested, and the pIC50 was > 7.30.
In the case of `Cc1ccc(CN(C(=O)CS(=O)(=O)c2ccccc2)C(c2ccc(OC(F)F)cc2)C2CC2)cn1` (centres unmarked) [Example 322], the pIC50 was 6.70 to 7.30.
`Cc1ccc(CN(C(=O)CS(=O)(=O)c2ccccc2)C(c2ccc(OC(F)F)cc2)C2CC2)cn1` (centres unmarked) [Example 323] was tested, and the pIC50 was 6.00 to 6.70.
For `CC(C)(C(=O)N(Cc1ccc(C(F)(F)F)nc1)C(c1ccc(OC(F)F)cc1)C1CC1)S(=O)(=O)c1ccccc1` (centres unmarked) [Example 324], the pIC50 was 6.70 to 7.30.
Compound `CCS(=O)(=O)c1cccc(C(C2CC2)N(Cc2ncccc2F)C(=O)CS(=O)(=O)c2ccccc2)c1` (centres unmarked) [Example 327] has a pIC50 of 5.70 to 6.00.
With `CCS(=O)(=O)c1cccc(C(C2CC2)N(Cc2ccccn2)C(=O)C(C)(C)S(=O)(=O)c2ccccc2)c1` (centres unmarked) [Example 328] the pIC50 was 6.00 to 6.70.
With `O=C(CS(=O)(=O)c1ccc(F)cc1)N(Cc1ccccn1)C(c1ccccc1OCC(F)F)C1CC1` (centres unmarked) [Example 329] the pIC50 was 6.70 to 7.30.
In the case of `O=C(CS(=O)(=O)c1ccc(F)cc1)N(Cc1ccc(C(F)(F)F)nc1)C(c1ccccc1OCC(F)F)C1CC1` (centres unmarked) [Example 330], the pIC50 was 6.70 to 7.30.
For `Cc1cccc(CN(C(=O)CS(=O)(=O)c2ccc(F)cc2)C(c2ccccc2OC(F)(F)F)C2CC2)n1` (centres unmarked) [Example 331], the pIC50 was 6.70 to 7.30.
`N#Cc1cccc(C(C2CC2)N(Cc2ccc(C(F)(F)F)nc2)C(=O)CS(=O)(=O)c2ccc(F)cc2)c1` (centres unmarked) [Example 332] gave a pIC50 of 6.70 to 7.30.
`N#Cc1cccc(C(C2CC2)N(Cc2ccc(C(F)(F)F)nc2)C(=O)CS(=O)(=O)c2ccc(F)cc2)c1` (centres unmarked) [Example 333] showed a pIC50 of 6.00 to 6.70.
